# Assay results taken from ChEMBL document CHEMBL5236635, “Structure-Based Drug Design and Synthesis of Novel N-Aryl-2,4-bithiazole-2-amine CYP1B1-Selective Inhibitors in Overcoming Taxol Resistance in A549 Cells” (J Med Chem, 2022).
# Calls of active or inactive are those of the source. No cut-off for these calls is given here.
# Legend:
# A549/TR = experiment: Reversal of taxol resistance in human A549/Taxol cells assessed as increase in Rho123 accumulation at 5 uM incubated for 20 mins by multimode plate reader analysis; format: functional, cell-based
# A549 [1] = experiment: Antiproliferative activity against human A549 cells assessed as reduction in cell viability at 20 nM in presence of DMBA by MTT assay; format: functional, cell-based
# A549 [2] = experiment: Antiproliferative activity against human A549 cells assessed as reduction in cell viability at 20 nM by MTT assay; format: functional, cell-based
# A549 [3] = experiment: Antiproliferative activity against human A549 cells assessed as reduction in cell viability at 10 nM by MTT assay; format: functional, cell-based
# Cytochrome P450 1B1 [4] = molecular target: T1, Cytochrome P450 1B1 (Homo sapiens, UniProt Q16678); experiment: Inhibition of CYP1B1 (unknown origin); format: ADME
# T1 sequence (Q16678 whole entry): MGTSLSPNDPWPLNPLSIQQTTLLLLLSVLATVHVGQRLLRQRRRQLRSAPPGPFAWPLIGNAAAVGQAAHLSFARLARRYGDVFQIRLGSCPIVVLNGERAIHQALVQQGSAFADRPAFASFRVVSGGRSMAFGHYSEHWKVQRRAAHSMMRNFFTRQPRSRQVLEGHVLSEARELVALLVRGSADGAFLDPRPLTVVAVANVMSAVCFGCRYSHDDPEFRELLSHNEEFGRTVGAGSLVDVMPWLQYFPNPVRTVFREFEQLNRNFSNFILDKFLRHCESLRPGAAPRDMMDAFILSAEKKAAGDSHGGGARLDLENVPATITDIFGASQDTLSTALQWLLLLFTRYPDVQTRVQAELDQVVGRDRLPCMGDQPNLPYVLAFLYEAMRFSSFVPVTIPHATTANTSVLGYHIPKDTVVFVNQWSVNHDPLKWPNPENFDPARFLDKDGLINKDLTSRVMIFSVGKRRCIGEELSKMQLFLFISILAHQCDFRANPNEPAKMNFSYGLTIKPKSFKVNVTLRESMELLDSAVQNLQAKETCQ
# Cytochrome P450 1A1 [5] = molecular target: T2, Cytochrome P450 1A1 (Homo sapiens, UniProt P04798); experiment: Inhibition of CYP1A1 (unknown origin); format: ADME
# T2 sequence (P04798 whole entry): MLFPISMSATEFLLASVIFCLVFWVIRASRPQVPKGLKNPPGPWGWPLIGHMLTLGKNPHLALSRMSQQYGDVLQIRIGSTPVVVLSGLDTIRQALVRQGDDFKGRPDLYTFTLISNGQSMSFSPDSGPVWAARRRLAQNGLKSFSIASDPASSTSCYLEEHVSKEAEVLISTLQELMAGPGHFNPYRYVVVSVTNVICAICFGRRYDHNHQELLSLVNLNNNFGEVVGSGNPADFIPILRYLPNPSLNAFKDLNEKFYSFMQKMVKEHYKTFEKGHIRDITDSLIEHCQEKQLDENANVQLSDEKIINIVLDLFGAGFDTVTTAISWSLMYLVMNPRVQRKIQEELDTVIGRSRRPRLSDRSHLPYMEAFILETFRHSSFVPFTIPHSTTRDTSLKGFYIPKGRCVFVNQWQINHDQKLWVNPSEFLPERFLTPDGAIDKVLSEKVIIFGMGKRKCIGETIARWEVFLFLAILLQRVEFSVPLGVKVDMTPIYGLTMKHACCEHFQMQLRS
# Cytochrome P450 1A2 [6] = molecular target: T3, Cytochrome P450 1A2 (Homo sapiens, UniProt P05177); experiment: Inhibition of CYP1A2 (unknown origin); format: ADME
# T3 sequence (P05177 whole entry): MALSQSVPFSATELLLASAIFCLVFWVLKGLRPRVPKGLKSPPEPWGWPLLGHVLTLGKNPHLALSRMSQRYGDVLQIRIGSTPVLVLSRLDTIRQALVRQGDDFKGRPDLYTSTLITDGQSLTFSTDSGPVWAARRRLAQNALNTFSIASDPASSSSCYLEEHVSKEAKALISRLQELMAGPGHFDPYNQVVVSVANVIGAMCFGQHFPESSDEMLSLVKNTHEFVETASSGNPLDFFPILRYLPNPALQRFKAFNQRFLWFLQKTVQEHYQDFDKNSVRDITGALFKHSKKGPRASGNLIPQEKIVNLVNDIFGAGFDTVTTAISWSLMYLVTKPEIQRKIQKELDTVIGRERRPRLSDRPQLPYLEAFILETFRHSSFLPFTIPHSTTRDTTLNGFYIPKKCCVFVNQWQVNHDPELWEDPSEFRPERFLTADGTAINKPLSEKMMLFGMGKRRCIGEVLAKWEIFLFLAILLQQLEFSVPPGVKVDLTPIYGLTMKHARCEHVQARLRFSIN
# Cytochrome P450 1A1 [7] = molecular target: T2, Cytochrome P450 1A1; experiment: Inhibition of recombinant human CYP1A1 using 7-ethyl-0-resorufin as substrate incubated for 30 mins in presence of NADPH by EROD assay
# Cytochrome P450 1A2 [8] = molecular target: T3, Cytochrome P450 1A2; experiment: Inhibition of recombinant human CYP1A2 using 7-ethyl-0-resorufin as substrate incubated for 30 mins in presence of NADPH by EROD assay
# Cytochrome P450 1B1 [9] = molecular target: T1, Cytochrome P450 1B1; experiment: Inhibition of recombinant human CYP1B1 using 7-ethyl-0-resorufin as substrate incubated for 30 mins in presence of NADPH by EROD assay
# A549 [10] = experiment: Inhibition of DMBA induced taxol resistance in human A549 cells; format: functional, cell-based; details: dose 2.5-10 µM
# CYP1A1 versus CYP1B1 = experiment: Selectivity index, ratio of IC50 for inhibition of recombinant human CYP1A1 to IC50 for inhibition of recombinant human CYP1B1; details: recombinant human CYP1A1 and recombinant human CYP1B1
# Cytochrome P450 1A1 [11] = molecular target: T2, Cytochrome P450 1A1; experiment: Inhibition of CYP1A1 (unknown origin) assessed as inhibition constant; format: ADME
# Cytochrome P450 1B1 [12] = molecular target: T1, Cytochrome P450 1B1; experiment: Inhibition of human CYP1B1; format: ADME
compound,measurement,setting,value
COc1ccc(CCN(C)CCCC(C#N)(c2ccc(OC)c(OC)c2)C(C)C)cc1OC (centres undefined),Activity,A549/TR,Active
CC(=O)O[C@H]1C(=O)[C@@]2(C)[C@H]([C@H](OC(=O)c3ccccc3)[C@]3(O)C[C@H](OC(=O)[C@H](O)[C@@H](NC(=O)c4ccccc4)c4ccccc4)C(C)=C1C3(C)C)[C@]1(OC(C)=O)CO[C@@H]1C[C@@H]2O,Activity,A549 [1],inactive
same,Activity,A549 [2],Active
same,Activity,A549 [3],Active
Nc1ccc2[nH]c3c(c2c1)CCn1c-3nc2ccccc2c1=O,IC50,Cytochrome P450 1B1 [4],0.09 µM
same,IC50,Cytochrome P450 1A1 [5],2.58 µM
same,IC50,Cytochrome P450 1A2 [6],2.58 µM
Clc1ccccc1-c1csc(-c2csc(Nc3ccc(N4CCOCC4)cc3)n2)n1,IC50,Cytochrome P450 1A1 [7],0.0466 µM
same,IC50,Cytochrome P450 1A2 [8],> 10 µM
same,IC50,Cytochrome P450 1B1 [9],0.00867 µM
same,inhibition,A549 [10],Dose-Dependent Effect
same,selectivity ratio,CYP1A1 versus CYP1B1,5.37
CCC/C(C=C(C)C)=C\COc1c2occc2c(C)c2ccc(=O)oc12,Ki,Cytochrome P450 1A1 [11],7.17 µM
Cc1cc(O)c2c(c1)C(=O)c1cc(O)cc(O)c1C2=O [EMODIN],IC50,Cytochrome P450 1B1 [12],3.73 µM
